Assay results as given in patent publication US11718604B2, “4-amino-6-(1,3-benzodioxole)picolinates and their use as herbicides” (Dow AgroSciences LLC, priority 2018, dated 2023).

Assays:
Assay type in all cases: in vivo
[1] = system: CYPES: yellow nutsedge (Cyperus esculentus); experiment: Post-emergent herbicidal test, yellow nutsedge; settings: post-emergence, 336 h, 14 days after application, read-out: Visual Growth Reduction (%) 14 Days After Application CYPES
Procedure: (§1) Post-Emergent Test: Seeds or nutlets of the desired test plant species were planted in Sun Gro Metro-Mix® 360 planting mixture, which typically has a pH of 6.0 to 6.8 and an organic matter content of about 30 percent, in plastic pots with a surface area of 64 square centimeters (cm^2). When required to ensure good germination and healthy plants, a fungicide treatment and/or other chemical or physical treatment was applied. The plants were grown for 7-21 d in a greenhouse with an approximate 15 h photoperiod which was maintained at about 23-29° C. during the day and 22-28° C. during the night. Nutrients and water were added on a regular basis and supplemental lighting was provided with overhead metal halide 1000-Watt lamps as necessary. The plants were employed for testing when they reached the first or second true leaf stage.
(§2) A weighed amount, determined by the highest rate to be tested, of each test compound was placed in a 25 mL glass vial and was dissolved in 4 mL of a 97:3 v/v mixture of acetone and DMSO to obtain concentrated stock solutions. […] The concentrated stock solutions obtained were diluted with 20 mL of an aqueous mixture containing acetone, water, isopropyl alcohol, DMSO, Atplus 411F crop oil concentrate, and Triton® X-155 surfactant in a 48.5:39:10:1.5:1.0:0.02 v/v ratio to obtain spray solutions containing the highest application rates. Additional application rates were obtained by serial dilution of 12 mL of the high rate solution into a solution containing 2 mL of a 97:3 v/v mixture of acetone and DMSO and 10 mL of an aqueous mixture containing acetone, water, isopropyl alcohol, DMSO, Atplus 411F crop oil concentrate, and Triton X-155 surfactant in a 48.5:39:10:1.5:1.0:0.02 v/v ratio to obtain ½×, ¼×, ⅛× and 1/16× rates of the high rate. Compound requirements are based upon a 12 mL application volume at a rate of 187 liters per hectare (L/ha). Formulated compounds were applied to the plant material with an overhead Mandel track sprayer equipped with 8002E nozzles calibrated to deliver 187 L/ha over an application area of 0.503 square meters at a spray height of 18 inches (43 cm) above the average plant canopy height. Control plants were sprayed in the same manner with the solvent blank.
(§3) The treated plants and control plants were placed in a greenhouse as described above and watered by subirrigation to prevent wash-off of the test compounds. After 14 d, the condition of the test plants as compared with that of the untreated plants was determined visually and scored on a scale of 0 to 100 percent where 0 corresponds to no injury and 100 corresponds to complete kill.

[2] = system: EPHHL: wild poinsettia (Euphorbia heterophylla); experiment: Post-emergent herbicidal test, wild poinsettia; settings: post-emergence, 336 h, 14 days after application, read-out: Visual Growth Reduction (%) 14 Days After Application EPHHL
Procedure: as §1, §2, §3

[3] = system: BRSNN: oilseed rape, canola (Brassica napus); experiment: Post-emergent herbicidal test, oilseed rape; settings: post-emergence, 336 h, 14 days after application, read-out: Visual Growth Reduction (%) 14 Days After Application BRSNN
Procedure: as §1, §2, §3

[4] = system: SORVU: shattercane (Sorghum bicolor); experiment: Post-emergent herbicidal test, shattercane; settings: post-emergence, 336 h, 14 days after application, read-out: Visual Growth Reduction (%) 14 Days After Application SORVU
Procedure: as §1, §2, §3

[5] = system: SETFA: giant foxtail (Setaria faberi); experiment: Post-emergent herbicidal test, giant foxtail; settings: post-emergence, 336 h, 14 days after application, read-out: Visual Growth Reduction (%) 14 Days After Application SETFA
Procedure: as §1, §2, §3

[6] = system: ABUTH: velvetleaf (Abutilon theophrasti); experiment: Post-emergent herbicidal test, velvetleaf; settings: post-emergence, 336 h, 14 days after application, read-out: Visual Growth Reduction (%) 14 Days After Application ABUTH
Procedure: as §1, §2, §3

[7] = system: CIRAR: Canada thistle (Cirsium arvense); experiment: Post-emergent herbicidal test, Canada thistle; settings: post-emergence, 336 h, 14 days after application, read-out: Visual Growth Reduction (%) 14 Days After Application CIRAR
Procedure: as §1, §2, §3

[8] = system: DIGSA: large crabgrass (Digitaria sanguinalis); experiment: Post-emergent herbicidal test, large crabgrass; settings: post-emergence, 336 h, 14 days after application, read-out: Visual Growth Reduction (%) 14 Days After Application DIGSA
Procedure: as §1, §2, §3

[9] = system: IPOHE: ivyleaf morningglory (Ipomoea hederacea); experiment: Post-emergent herbicidal test, ivyleaf morningglory; settings: post-emergence, 336 h, 14 days after application, read-out: Visual Growth Reduction (%) 14 Days After Application IPOHE
Procedure: as §1, §2, §3

[10] = system: ECHCG: barnyardgrass (Echinochloa crus-galli); experiment: Post-emergent herbicidal test, barnyardgrass; settings: post-emergence, 336 h, 14 days after application, read-out: Visual Growth Reduction (%) 14 Days After Application ECHCG
Procedure: as §1, §2, §3

[11] = system: VIOTR: wild violet (Viola tricolor); experiment: Post-emergent herbicidal test, wild violet; settings: post-emergence, 336 h, 14 days after application, read-out: Visual Growth Reduction (%) 14 Days After Application VIOTR
Procedure: as §1, §2, §3

## Nc1c(F)c(-c2ccc(Cl)c3c2OCO3)nc(C(=O)OCc2ccccc2)c1Cl [Compound 1B]
[1]; 17.5 g ai/ha
  pest or weed control at 17.5 g/ha: 75%
[1]; 35 g ai/ha
  pest or weed control at 35 g/ha: 85%
[1]; 70 g ai/ha
  pest or weed control at 70 g/ha: 85%
[1]; 140 g ai/ha
  pest or weed control at 140 g/ha: 90%
[2]; 17.5 g ai/ha
  pest or weed control at 17.5 g/ha: 10%
[2]; 35 g ai/ha
  pest or weed control at 35 g/ha: 10%
[2]; 70 g ai/ha
  pest or weed control at 70 g/ha: 15%
[2]; 140 g ai/ha
  pest or weed control at 140 g/ha: 10%
[3]; 17.5 g ai/ha
  pest or weed control at 17.5 g/ha: 95%
[3]; 35 g ai/ha
  pest or weed control at 35 g/ha: 100%
[3]; 70 g ai/ha
  pest or weed control at 70 g/ha: 100%
[3]; 140 g ai/ha
  pest or weed control at 140 g/ha: 100%
[4]; 17.5 g ai/ha
  pest or weed control at 17.5 g/ha: 25%
[4]; 35 g ai/ha
  pest or weed control at 35 g/ha: 50%
[4]; 70 g ai/ha
  pest or weed control at 70 g/ha: 60%
[4]; 140 g ai/ha
  pest or weed control at 140 g/ha: 85%
[5]; 17.5 g ai/ha
  pest or weed control at 17.5 g/ha: 0%
[5]; 35 g ai/ha
  pest or weed control at 35 g/ha: 0%
[5]; 70 g ai/ha
  pest or weed control at 70 g/ha: 20%
[5]; 140 g ai/ha
  pest or weed control at 140 g/ha: 50%
[6]; 17.5 g ai/ha
  pest or weed control at 17.5 g/ha: 90%
[6]; 35 g ai/ha
  pest or weed control at 35 g/ha: 95%
[6]; 70 g ai/ha
  pest or weed control at 70 g/ha: 100%
[6]; 140 g ai/ha
  pest or weed control at 140 g/ha: 100%
[7]; 17.5 g ai/ha
  pest or weed control at 17.5 g/ha: 75%
[7]; 35 g ai/ha
  pest or weed control at 35 g/ha: 80%
[7]; 70 g ai/ha
  pest or weed control at 70 g/ha: 85%
[7]; 140 g ai/ha
  pest or weed control at 140 g/ha: 90%
[8]; 17.5 g ai/ha
  pest or weed control at 17.5 g/ha: 0%
[8]; 35 g ai/ha
  pest or weed control at 35 g/ha: 0%
[8]; 70 g ai/ha
  pest or weed control at 70 g/ha: 20%
[8]; 140 g ai/ha
  pest or weed control at 140 g/ha: 50%
[9]; 17.5 g ai/ha
  pest or weed control at 17.5 g/ha: 0%
[9]; 35 g ai/ha
  pest or weed control at 35 g/ha: 0%
[9]; 70 g ai/ha
  pest or weed control at 70 g/ha: 0%
[9]; 140 g ai/ha
  pest or weed control at 140 g/ha: 10%
[10]; 17.5 g ai/ha
  pest or weed control at 17.5 g/ha: 0%
[10]; 35 g ai/ha
  pest or weed control at 35 g/ha: 0%
[10]; 70 g ai/ha
  pest or weed control at 70 g/ha: 0%
[10]; 140 g ai/ha
  pest or weed control at 140 g/ha: 0%
[11]; 17.5 g ai/ha
  pest or weed control at 17.5 g/ha: 40%
[11]; 35 g ai/ha
  pest or weed control at 35 g/ha: 75%
[11]; 70 g ai/ha
  pest or weed control at 70 g/ha: 60%
[11]; 140 g ai/ha
  pest or weed control at 140 g/ha: 75%
